# In patent publication US9686971B2, “Methods for testing anti-thrombotic agents” (The Trustees of Columbia University in the City of New York, priority 2006, dated 2017):
# Entries after “also recorded” stand apart in the source; their conditions may differ.
# Columns and labels:
# [1] = in vivo; cited from earlier work
# human platelets [2] = details: cited from earlier work
# murine platelets [3] = assay: Ristocetin-induced platelet aggregation assay (RIPA), murine platelet rich plasma; format: cell-based, mouse
# Protocol: In a Ristocetin-induced platelet aggregation assays, platelet GPIb alpha binding to wild type human VWF or mouse VWF was analyzed in the absence or presence of ristocetin as described by Inbal, et al. (1993, Thromb. Haemost., 70:1058-1062). In this method, platelet rich plasma (PRP) is placed in a clear cuvette containing a stir bar and inserted into the aggregometer. Platelet aggregation is induced by the addition of ristocetin. […] In fact, only at concentrations of ≧2.5 mg/ml was there any evidence of murine platelet aggregation observed (˜30%, FIG. 10C).
# thrombus formation = details: mice; given the day before and 2 hours prior; cited from earlier work
# human platelets [4] = assay: Ex vivo platelet adhesion, human whole blood over immobilized plasma VWF or rVWF-A1, 1600 s^-1; format: cell-based; details: for human platelet deposition as compared with same-species controls / human platelet accumulation on immobilized protein: human whole blood; for human platelet deposition as compared with same-species controls: 1600 s^-1, 4 min; for human platelet accumulation on immobilized protein: 1600 s^-1; for translocation velocities of human platelets: mean±s.e.m, n=4
# Protocol: (§1) Experiments were performed in a parallel-plate flow chamber as previously described (Offermanns, S. (2006) Circ. Res. 99, 1293-1304). For studies involving plasma VWF, a polyclonal anti-VWF antibody (Dako) was absorbed overnight (4° C.) to a six well tissue culture plate. Subsequently, the plate was washed and non-specific interactions blocked by the addition of TBS containing 3% BSA, pH 7.4 (1 h, 37° C.). Human or murine plasma obtained from heparinized whole blood was added and the plates placed at 37° C. for an additional 2 h. Generation, purification, and surface-immobilization of recombinant VWF-A1 proteins was performed as previously described (Doggett, T. A. et al. Biophys. J. 83, 194-205 (2002)). Both human and murine VWF-A1 constructs consist of amino acid residues 1238 to 1471, with a single intra-disulfide bond formed between residues 1272 and 1458 and were generated in bacteria. Citrated whole blood (150 μl) collected via cardiac puncture from anesthetized homozygous VWF^1326R>H or WT mice or from venopuncture from human volunteers was perfused over the immobilized substrates at a wall shear rate of 1600 s^−1 for 4 min, followed by washing with Tyrode's buffer under the identical flow conditions. The number of platelets attached per unit area (0.07 mm^2) and translocation velocities were determined by off-line analysis (Image-Pro Plus, Media Cybernetics). For GPIbα inhibition studies, the function-blocking mAb 6D1 (20 μg/ml) or mAb SZ2 (20 μg/ml; Beckman Coulter) was added to anticoagulated human blood for 30 min prior to use. Experiments were performed in triplicate on two separate days. An ELISA was used to ensure equivalent coating concentration of plasma and recombinant proteins (Denis, C. et al. (1998) Proc. Natl. Acad. Sci. USA 95, 9524-9529).
# GPIb alpha = target: T1, GPIb alpha (Homo sapiens, UniProt P07359); assay: Transient tether kinetics of VWF-A1 coated microspheres on surface-immobilized human platelets; format: binding; details: VWF-A1 coated beads, wall shear stress 1 dyn cm^−2
# T1 construct: enables evaluation of GPIb alpha in its native form (i.e. correct orientation and proper post-translational modification); endogenous in cells; host or cells: human platelets purified by gel filtration, immobilized on Fab fragments of mAb 7E3
# Protocol: In flow assays involving protein-coated microspheres, human or murine platelets purified by gel filtration are incubated with 10 mM sodium azide (NaN3), 50 ng/ml prostaglandin E1, and 10 μm indomethacin (Sigma Immunochemicals, St. Louis, Mo.) to reduce the possibility of activation and potential alterations in expression and/or distribution of GPIb alpha on their surface. Platelets are subsequently allowed to settle in stasis on Fab fragments of monoclonal antibodies that recognize either human (i.e., mAb 7E3) or murine (i.e., mAb NAD-1) alpha IIb/β3 in order to form a reactive substrate. […] Platelet coverage of <10% will be bound in this manner can remain relatively unactivated for up to 30 min as evident by morphology on light microscopic examination (FIG. 7A) and lack of expression of P-selectin by fluorescence microscopy (FIG. 7B).
# To reduce the possibility of multiple bond formation that would result in a prolongation in interaction times between the beads and immobilized platelets, the lowest site densities of VWF-A1 capable of supporting these brief interactions is used, a value we found to correspond to ˜30 molecules μm^2. […] The force acting on the tether bond was calculated from force balance equations as stated above and koff plotted as a function of these forces. […]
# murine platelets [5] = assay: Ex vivo platelet adhesion, murine whole blood over immobilized plasma VWF or rVWF-A1, 1600 s^-1; format: cell-based, mouse
# Protocol: as §1, with “For GPIbα inhibition studies, the function-blocking mAb 6D1 (20 μg/ml) or mAb SZ2 (20 μg/ml; Beckman Coulter) was added to anticoagulated human blood for 30 min prior to use. Experiments were performed in triplicate on two separate days. An ELISA was used to ensure equivalent coating concentration of plasma and recombinant proteins (Denis, C. et al. (1998) Proc. Natl. Acad. Sci. USA 95, 9524-9529).” left out
# human platelets [6] = assay: In vitro parallel plate flow chamber platelet adhesion on recombinant VWF-A1, 800 s^-1, human platelets; format: cell-based; details: wall shear rate 800 s^-1
# Protocol: (§2) The protein was subsequently used in a series of in vitro flow chamber assays to assess function. Washed human or murine platelets (5×10^7/ml) were infused through a parallel plate flow chamber containing glass cover slips coated with either human VWF-A1 or mouse VWF-A1 protein (100 μg/ml final concentration) at a shear rate of 800 s^−1. After 5 min of continuous flow, adherent platelets were quantified.
# Support for this hypothesis is provided by mutagenesis studies. By analyzing the data obtained from the crystal structure of the murine VWF-A1 domain, we have identified several residues that may participate in interactions with GPIb alpha (FIG. 15C). Residue 1326 was initially chosen for study and was mutated to the corresponding amino acid at the identical location in its human counterpart (from Arg to His). Subsequently, the ability of murine and human platelets to interact with this mutant protein substrate was evaluated at a wall shear rate of 800 s^−1. Incorporation of a histidine for arginine at position 1326 in murine VWF-A1 reduced murine platelet adhesion by ˜5-fold and increased translocation velocities of cells by ˜7-fold as compared to the WT mouse protein (FIGS. 13A, 13B, 16A, and 16B). […] These studies support the hypothesis that from a structural and functional standpoint, mouse and human VWF-A1 are very similar.
# murine platelets [7] = assay: In vitro parallel plate flow chamber platelet adhesion on recombinant VWF-A1, 800 s^-1, murine platelets; format: cell-based, mouse; details: wall shear rate 800 s^-1
# Protocol: as §2
# In the case of the latter, the murine A1 fragment was inserted into pET-11b (Stratagene) and purified as previously described (53).
# Support for this hypothesis is provided by mutagenesis studies. By analyzing the data obtained from the crystal structure of the murine VWF-A1 domain, we have identified several residues that may participate in interactions with GPIb alpha (FIG. 15C). Residue 1326 was initially chosen for study and was mutated to the corresponding amino acid at the identical location in its human counterpart (from Arg to His). Subsequently, the ability of murine and human platelets to interact with this mutant protein substrate was evaluated at a wall shear rate of 800 s^−1. Incorporation of a histidine for arginine at position 1326 in murine VWF-A1 reduced murine platelet adhesion by ˜5-fold and increased translocation velocities of cells by ˜7-fold as compared to the WT mouse protein (FIGS. 13A, 13B, 16A, and 16B). […]
# T1 sequence (P07359 17-652): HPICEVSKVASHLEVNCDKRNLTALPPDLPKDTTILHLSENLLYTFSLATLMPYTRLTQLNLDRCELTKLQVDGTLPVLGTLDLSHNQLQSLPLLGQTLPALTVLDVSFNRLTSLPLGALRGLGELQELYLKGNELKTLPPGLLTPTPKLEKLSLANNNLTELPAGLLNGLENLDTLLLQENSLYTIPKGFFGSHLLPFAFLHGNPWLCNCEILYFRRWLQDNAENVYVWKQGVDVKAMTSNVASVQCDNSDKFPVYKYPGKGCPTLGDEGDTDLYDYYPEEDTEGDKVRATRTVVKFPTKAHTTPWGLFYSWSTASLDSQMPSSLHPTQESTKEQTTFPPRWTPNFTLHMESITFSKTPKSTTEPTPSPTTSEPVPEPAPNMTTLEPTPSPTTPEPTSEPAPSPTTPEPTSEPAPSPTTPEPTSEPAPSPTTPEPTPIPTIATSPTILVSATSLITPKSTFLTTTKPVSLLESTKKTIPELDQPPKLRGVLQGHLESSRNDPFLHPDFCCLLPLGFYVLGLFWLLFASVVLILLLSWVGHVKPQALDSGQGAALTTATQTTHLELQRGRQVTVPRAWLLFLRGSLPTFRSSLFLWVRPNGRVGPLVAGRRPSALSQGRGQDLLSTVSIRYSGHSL
molecule,measurement,setting,value
CCCCS(=O)(=O)N[C@@H](Cc1ccc(OCCCCC2CCNCC2)cc1)C(=O)O [Tirofiban],plasma half-life,[1],approximately 2 hours
ristocetin,concentration known to cause agglutination of human platelets,human platelets [2],~1.0 mg/mL
same,effect on murine platelets at the concentration that agglutinates human platelets,"murine platelets [3]; murine PRP, ristocetin ~1.0 mg/ml",no such effect; also recorded: had no effect
same,platelet aggregation,"murine platelets [3]; murine PRP, ristocetin ≧2.5 mg/ml",~30%
COC(=O)[C@H](c1ccccc1Cl)N1CCc2sccc2C1 [clopidogrel],maximal effective dose to reduce thrombus size and delay its formation,thrombus formation,50 mg/kg
thrombin,platelet aggregation,murine platelets [3]; incubation of murine PRP with thrombin,> 90%
murine plasma VWF: surface-bound wild type murine plasma VWF,human platelet deposition as compared with same-species controls,human platelets [4],10%
murine plasma VWF^1326R>H: plasma VWF obtained from mice homozygous for VWF^1326R>H,human platelet accumulation on immobilized protein,human platelets [4],comparable with its human counterpart
same,translocation velocities of human platelets,human platelets [4],3.5±0.1 μm/sec
WT human VWF-A1: wild type recombinant human VWF-A1 domain,koff,GPIb alpha,6.5 s⁻¹
human plasma VWF: native human plasma VWF,translocation velocities of human platelets,human platelets [4],3.2±0.1 μm/sec
"murine rVWF-A1: recombinant A1 domain of murine VWF, residues 1238 to 1471 (protein, left off: small tags and cut ends) QEPGGLVAPPTDAPVSSTTPYVEDTPEPPLHNFYCSKLLDLVFLLDGSSMLSEAEFEVLKAFVVGMMERLHISQKRIRVAVVEYHDGSRAYLELKARKRPSELRRITSQIKYTGSQVASTSEVLKYTLFQIFGKIDRPEASHITLLLTASQEPPRMARNLVRYVQGLKKKKVIVIPVGIGPHASLKQIRLIEKQAPENKAFLLSGVDELEQRRDEIVSYLCDLAPEAPAPTQPP",human platelet deposition as compared with same-species controls,human platelets [4],25%
"murine rVWF-A1 1330E>G: murine rVWF-A1 with human residue at position 1330 (E>G) (protein, left off: small tags and cut ends) QEPGGLVAPPTDAPVSSTTPYVEDTPEPPLHNFYCSKLLDLVFLLDGSSMLSEAEFEVLKAFVVGMMERLHISQKRIRVAVVEYHDGSRAYLGLKARKRPSELRRITSQIKYTGSQVASTSEVLKYTLFQIFGKIDRPEASHITLLLTASQEPPRMARNLVRYVQGLKKKKVIVIPVGIGPHASLKQIRLIEKQAPENKAFLLSGVDELEQRRDEIVSYLCDLAPEAPAPTQPP",human platelet accumulation on immobilized protein,human platelets [4],failed to promote the interaction
"murine rVWF-A1 1370S>G: murine rVWF-A1 with human residue at position 1370, printed S>G (protein, left off: small tags and cut ends, murine rVWF-A1 with human residue at position 1370, printed S>G) QEPGGLVAPPTDAPVSSTTPYVEDTPEPPLHNFYCSKLLDLVFLLDGSSMLSEAEFEVLKAFVVGMMERLHISQKRIRVAVVEYHDGSRAYLELKARKRPSELRRITSQIKYTGSQVASTSEVLKYTLFQIFSKIDRPEASHITLLLTASQEPPRMARNLVRYVQGLKKKKVIVIPVGIGPHASLKQIRLIEKQAPENKAFLLSGVDELEQRRDEIVSYLCDLAPEAPAPTQPP",human platelet accumulation on immobilized protein,human platelets [4],failed to promote the interaction
murine VWF-A1 1326R>H: recombinant mouse VWF-A1 domain with HIS for ARG at residue 1326 (protein) EDTPEPPLHNFYCSKLLDLVFLLDGSSMLSEAEFEVLKAFVVGMMERLHISQKRIRVAVVEYHDGSHAYLELKARKRPSELRRITSQIKYTGSQVASTSEVLKYTLFQIFGKIDRPEASHITLLLTASQEPPRMARNLVRYVQGLKKKKVIVIPVGIGPHASLKQIRLIEKQAPENKAFLLSGVDELEQRRDEIVSYLCDLAPEAPAPTQPPQVAHVTVSP,reduction of mouse platelet adhesion,murine platelets [5],~75%
same,human platelet interactions with the protein substrate,human platelets [6],comparable to that of WT human VWF-A1
same,human platelet accumulation on immobilized protein,human platelets [4],comparable to its wild-type (WT) human counterpart
same,increase of translocation velocities of murine platelets compared to WT mouse protein,murine platelets [7],~7 fold
same,reduction of murine platelet adhesion compared to WT mouse protein,murine platelets [7],~5 fold
